In patent publication US20030130484A1, “Inhibitors and disassemblers of fibrillogenesis” (priority 2001, published 2003):

Tests used:
[1] = Circular dichroism under denaturing conditions (urea, pH, GuHCl, temperature); format: physicochemical; details: pH 2.5-10.5, 8M GuHCl, 20° and 70° C.
Method: (§1) A 1 mm or 0.1 mm pathlength cell was used for measurements, depending on the concentration of the solution. Six to eight scans were acquired from 250 nm to 200 nm. For the pH experiment, a 100 mM phosphate-citrate buffer was used for pH 2.5-6.5, a 100 mM phosphate buffer was used for pH 7.5-8.5 and a 100 mM glycine-NaOH buffer was used for pH 9.5-10.5.
as §1, with “The circular dichroic (CD) spectra were recorded using a Jasco P715 spectropolarimeter. […] A” for “A”, “9.5-10.5. For the urea denaturation experiment, Ad 16-20m was dissolved in 100 mM phosphate buffer pH 7.4 with 0-8.5 M urea.” for “9.5-10.5.”

[2] = Solubility in aqueous media and organic solvents
Aβ40 fibrils = Aβ40 fibrils (Homo sapiens, UniProt P05067)
Calcein leakage assay = format: in vitro ADME; design: calcein escaped from the vesicles: dose or concentration left out as unconfirmed
Method: The leakage of vesicle contents was monitored by measuring the release of calcein (Terzi et al., 1995 and Pillot et al, 1996). Vesicles were prepared and separated from free calcein as described above for the radioactive compounds, except that the rehydration buffer contained […] calcein and 10 mM Na-EDTA. In the kinetic assay, peptide was added to the vesicle solution and the fluorescence was measured at ten minute intervals with excitation and emission wavelengths of 490 and 520 nm, respectively. Data were fit to an equation for a first order rate process. For the concentration dependence assay, different amounts of peptide were added to the vesicle solution and the fluorescence was measured after a two hour incubation at 37° C. The maximum leakage was determined by lysing the vesicles with the addition of 0.5% (w/v) Triton X-100.
The leakage of vesicle contents was monitored by measuring the release of calcein (Terzi et al., 1995; Pillot et al., 1996). Vesicles were prepared and separated from free calcein as described herein for the radioactive compounds, except that the rehydration buffer contained 40 mM calcein and 1 mM Na-EDTA. […] The maximum fluorescence was measured by lysing the vesicles with the addition of 0.1% (w/v) Triton X-100.

Aβ40 = Aβ40 (Homo sapiens, UniProt P05067); test: Inhibition of Aβ40 fibrillogenesis, thioflavin T fluorescence assay; format: biochemical
PrP106-126 = PrP106-126 (Homo sapiens, UniProt P04156); format: biochemical
Chain of PrP106-126 (P04156 106-126 limits assumed): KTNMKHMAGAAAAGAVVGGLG

Chain of Aβ40 (P05067 672-711): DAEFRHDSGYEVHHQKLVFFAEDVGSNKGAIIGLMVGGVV
Chain of Aβ40 fibrils (P05067 672-711): as above

CC(=O)N[C@@H](CCCCN)C(=O)N(C)[C@@H](CC(C)C)C(=O)N[C@H](C(=O)N(C)[C@@H](Cc1ccccc1)C(=O)N[C@@H](Cc1ccccc1)C(N)=O)C(C)C [Aβ16-20m, Ac—NH—K(me-L)V(me-F)F—CONH2]
stability of peptide structure by CD (mean residue ellipticity at 226 nm) [1]: extremely stable and resistant to chemical denaturation
solubility [2]: ≥ 30 mM
solubility in aqueous media (in words) [2]: highly soluble in aqueous media
solubility in organic solvents (in words) ([2]; DMF, diethyl ether, methylene chloride, chloroform): highly soluble
half-life (Aβ40 fibrils): 24 ± 7 min
leakage of calcein from vesicles (in words) (Calcein leakage assay): causes the leakage of calcein
calcein escaped from the vesicles (Calcein leakage assay; highest concentration tested): 82%
calcein efflux (Calcein leakage assay; low micromolar concentrations of peptide): less than 10%
effect on Aβ40 fibril formation (in words) (Aβ40): highly effective inhibitor
inhibition of fibril formation by PrP106-126 (PrP106-126): ineffective
